Assay results reported in US20230057309A1, “Inhibitors of DREAM Complex Assembly and/or Function For Use In Repairing DNA Damage” (priority 2021, published 2023).

Legend:
U2OS cells [1] = assay: MMS-induced apoptosis in quiescent U2OS cells (Annexin V / 7-AAD FACS); assay type: cell-based, human; settings: MMS 2 mM for 2 hours; 24 h after treatment; harmine 10 μM, INDY 25 μM
Experimental: (§1) U2OS were cultured in DMEM, high glucose GlutaMAX Supplement, Pyruvate (Thermo Fisher Scientific, 31966047) with 10% fetal bovine serum (FBS; Biochrom GmbH, S0615) and 1% Penicillin-Streptomycin (Thermo Fisher Scientific, 15140112). Cells were kept at 37° C. in a 5% CO2 incubator (Binder). Cell dissociation from the plates was performed with Accutase (Sigma, A6964). Cells were cultivated in FBS-free medium for 48 hours before genotoxic treatment were applied. […] Before the genotoxic treatment, cells were washed with FBS-free medium. For the UV treatment, medium was removed from the plates and cells were irradiated using 254 nm UV-C light Phillips UV6 bulbs. The MMS treatment was performed by adding MMS at 2 mM for 2 hours, followed by 3 washes with FBS-free medium. Quantification via FACS of cell death and apoptosis was performed 24 hours after genotoxic treatment.
(§2) Collected cells were incubated in Annexin V Binding buffer (BioLegend, 422201) with Pacific Blue Annexin V (BioLegend, 640917) and 7-AAD (Thermo Fisher Scientific, 00699350) at 4° C. for 15 minutes. Cells were measured using a MACSQuant VYB (Miltenyi Biotec) and analyzed using FlowJo (BD).

U2OS cells [2] = assay: DNA repair kinetics in U2OS cells, γH2AX antibody staining after UV; assay type: cell-based, human; settings: quiescent cells, hours after UV; harmine 10 μM, INDY 25 μM
Experimental: Before the genotoxic treatment, cells are washed with FBS-free medium. For the UV treatment, medium is removed from the plates and cells are irradiated using 254 nm UV-C light Phillips UV6 bulbs. The MMS treatment is performed, e.g., by adding MMS at 2 mM for 2 hours, followed by 3 washes with FBS-free medium. Cells are fixed in a solution comprising PFA on HistoBond+ Adhesion Microscope Slides (Marienfeld, 0810461). To estimate the total amount of DNA damage per cell, the fixed cells are incubated overnight at 4° C. in PBS comprising anti-γH2AX antibody (Mouse anti-phospho-Histone H2A.X (Ser139), clone JBW301, Millipore, Cat #: 05-636), then washed 5 times 10 minutes in a suitable buffer at RT, prior to incubation for at least two hours with a secondary antibody. Finally, the slides are washed another 5 times 10 minutes in PBS-T and dried overnight. The next morning, slides are sealed with a cover slip.

DYRK1A kinase = DYRK1A kinase (Homo sapiens, UniProt Q13627); settings: cited from earlier work
U2OS cells [3] = assay: UV-induced apoptosis in quiescent U2OS cells (Annexin V / 7-AAD FACS); assay type: cell-based, human; settings: UV 2 mJ·cm-2; 24 h after UV; harmine 10 μM, INDY 25 μM
Experimental: as §1, §2

DREAM target genes = assay: RNA-seq of quiescent (serum-starved) U2OS cells treated with DYRK1A inhibitors; assay type: cell-based, human; settings: 24 h treatment, harmine 10 μM, INDY 25 μM; for number of the 67 DNA repair genes bound by DREAM that were upregulated: FDR<0.01
Experimental: as §1
For the qPCRs and RNA-seq on L1 worms, around 10.000 (qPCR) or 40.000 (RNA-seq) bleach-synchronized L1 worms in triplicates (qPCR) or quadruplicates (RNA-seq) per strain and condition were placed in seeded NGM plates and left at 20° C. for 3 hours. Posteriorly, they were irradiated with a 310 nm UV-B light Philips UV6 bulb in a Waldmann UV236B irradiation device or left unirradiated, and left for 6 more hours to allow the DNA damage related transcriptional changes to be taking place. After this, worms were collected, washed three times with M9 buffer, and the pellet was placed in a tube containing 1 ml of TRIzol™ (Invitrogen, 15596018) and 1 mm zirconia/silica beads (Biospec Products, 11079110z). To extract the RNA, worms were first disrupted with a Precellys24 (Bertin Instruments, P000669-PR240-A), and then the RNA isolation was performed by using the RNeasy Mini Kit (QIAGEN, 74106) following the manufacturer's specifications, except for the use of 1-bromo-3-chloropropane (Sigma, B9673) instead of chloroform. The RNA was quantified using NanoDrop™ 8000 (ThermoFisher, ND-8000-GL). […] Cells were disrupted with RLT buffer and homogenized with QIAshredder spin columns (QIAGEN, 79656).
The human RNA-seq data were processed with Salmon-1.1 (Patro et al., 2017) against a decoy-aware transcriptome (gencode.v37 transcripts and the GRCh38.primary_assembly genome) with the following parameter: --validateMappings -gcBias -seqBias. The output was imported and summarized to the gene-level with tximport (1.14.2) (Soneson, Love and Robinson, 2016) and differential gene analysis was done with edgeR (3.28.1) (Robinson, McCarthy and Smyth, 2009).

Ercc1−/− mice = assay: Photoreceptor cell loss in Ercc1 knockout mouse model of premature aging (TUNEL staining of retina); assay type: in vivo; settings: 10 mg/kg i.p. 3 times/week from P3, retina at P15
From the text: Mice were sacrificed at postnatal day P15 for retina tissue isolation. Tissues were embedded in optimal cutting temperature (OCT) compound, cryosectioned and stained using in situ cell detection kit (TUNEL staining) (11684817910, Roche).

[4] = test system: Podocyte-specific Ercc1 knockout mice; assay: Kidney function (proteinuria) in podocyte-specific Ercc1 knockout mice; assay type: in vivo, mouse; settings: 10 mg/kg/day for 4 weeks from 3 weeks of age; urine 8 and 11 days afterwards
Experimental: Proteinuria as endpoint for kidney dysfunction was assessed by Coomassie brilliant blue staining in urine 8 days (FIG. 7A) and 11 days (FIG. 7B) afterwards.
Proteinuria as endpoint for kidney dysfunction was assessed in urine 8 days and 11 days afterwards by assessing overall protein levels in urine samples via Coomassie brilliant blue staining after electrophoretic separation in a polyacrylamide gel.

[5] = target: T1, monoamine oxidase A (MAOA) (Homo sapiens, UniProt P21397); settings: cited from earlier work
T1 sequence (P21397 1-527): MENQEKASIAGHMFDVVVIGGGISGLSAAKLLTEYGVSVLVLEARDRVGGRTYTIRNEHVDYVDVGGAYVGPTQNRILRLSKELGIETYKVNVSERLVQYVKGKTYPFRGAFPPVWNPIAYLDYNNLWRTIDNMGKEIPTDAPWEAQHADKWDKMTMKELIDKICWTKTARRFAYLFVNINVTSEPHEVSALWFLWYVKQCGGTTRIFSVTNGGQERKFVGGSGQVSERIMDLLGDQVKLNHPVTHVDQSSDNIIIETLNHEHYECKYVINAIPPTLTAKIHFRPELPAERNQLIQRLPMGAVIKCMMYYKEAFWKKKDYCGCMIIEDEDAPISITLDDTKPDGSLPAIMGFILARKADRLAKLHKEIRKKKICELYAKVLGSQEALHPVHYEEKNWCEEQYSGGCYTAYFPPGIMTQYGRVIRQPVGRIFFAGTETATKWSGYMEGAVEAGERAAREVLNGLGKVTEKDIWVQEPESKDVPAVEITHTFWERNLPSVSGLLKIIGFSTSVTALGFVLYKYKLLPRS

SMILES	resistance to MMS (apoptotic cells) (U2OS cells [1])	γH2AX amount after UV irradiation vs control cells (U2OS cells [2])	DYRK1A inhibition, selectivity (DYRK1A kinase)	UV-induced apoptosis (annexin V positive + annexin V/7-AAD positive cells) vs mock treated cells (U2OS cells [3])	expression of DREAM target genes (DREAM target genes)	number of the 67 DNA repair genes bound by DREAM that were upregulated (DREAM target genes)	apoptosis in photoreceptor cells (TUNEL) (Ercc1−/− mice)	proteinuria (Coomassie staining of urine) [4]	MAOA inhibition [5]
CCN1/C(=C/C(C)=O)Sc2ccc(O)cc21 [INDY, (1Z)-1-(3-ethyl-5-hydroxy-2(3H)-benzothiazoylidene)-2-propanone]	boosted the resistance to the alkylating agent MMS	significantly lower amounts of γH2AX	highly selective DYRK1A inhibitor	highly significant reduction in UV-induced apoptosis	upregulation of DREAM target genes	46			
COc1ccc2c(c1)[nH]c1c(C)nccc12 [harmine]	boosted the resistance to the alkylating agent MMS			highly significant reduction in UV-induced apoptosis	upregulation of DREAM target genes	58	prevented apoptosis in photoreceptor cells	mitigation of proteinuria	could also inhibit monoamine oxidase A (MAOA)
